Data taken from ChEMBL document CHEMBL1201862, “PubChem BioAssay data set” (2004).
Several values for one entry are separate records, joined by “and”; a condition that tells them apart may be missing. Equal values may be shown once.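 In this assay, cells in 96-well plates receive the compound at five concentrations for 48 hours. Endpoints are linearly interpolated between the surrounding concentrations. GI50 = concentration required for 50% inhibition of growth.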 Activity calls are given as the source filed them. Cut-off read from the data, not from the text of the source: active = GI50 up to about 1.1 µM and inactive = higher.

Assays:
Experiment in all cases: DTP human tumour cell line panel, 48 h
A549 = tested on: A549
DU-145 = tested on: DU-145
HL-60 = tested on: HL-60
HT-29 = tested on: HT-29
Hs-578T = tested on: Hs-578T
K562 = tested on: K562
KM12 = tested on: KM12
MDA-N = tested on: MDA-N
NCI/ADR-RES = tested on: NCI/ADR-RES
OVCAR-4 = tested on: OVCAR-4
OVCAR-5 = tested on: OVCAR-5
RXF 393 = tested on: RXF 393
SK-MEL-28 = tested on: SK-MEL-28
SK-MEL-5 = tested on: SK-MEL-5
SN12C = tested on: SN12C
SNB-19 = tested on: SNB-19
SR = tested on: SR
T47D = tested on: T47D

Measured: GI50

O=c1[nH]c2ccsc2c(=O)n1COCc1ccccc1
inactive: A549 > 100 µM | DU-145 > 100 µM | HL-60 > 100 µM | HT-29 > 100 µM | Hs-578T > 100 µM | K562 > 100 µM | KM12 > 100 µM | MDA-N > 100 µM | NCI/ADR-RES > 100 µM | OVCAR-4 > 100 µM | OVCAR-5 > 100 µM | RXF 393 > 100 µM | SK-MEL-28 > 100 µM | SK-MEL-5 > 100 µM | SN12C > 100 µM | SNB-19 > 100 µM | SR > 100 µM

CN(C)CCNC(=O)c1cccc2c(NCC(=O)O)c3ccccc3nc12
inactive: A549 7.85 µM | DU-145 25.3 µM | HL-60 > 100 µM | HT-29 3.07 µM | Hs-578T 18.5 µM | K562 14 µM | KM12 11.9 µM | MDA-N 14 µM | NCI/ADR-RES 11.9 µM | OVCAR-4 9.82 µM | OVCAR-5 13.5 µM | SK-MEL-28 20.6 µM | SK-MEL-5 10.6 µM | SN12C 9.98 µM | SNB-19 6.49 µM | SR 1.36 µM

Oc1ccc(-c2nc3ccc(Br)cc3s2)cc1
inactive: A549 21.7 µM | DU-145 16.9 µM | HL-60 17 µM | HT-29 18.2 µM | K562 23.5 µM | KM12 14.7 µM | MDA-N 25.6 µM | NCI/ADR-RES 18.1 µM | OVCAR-5 24 µM | RXF 393 31.3 µM | SK-MEL-5 13.5 µM | SN12C 18.2 µM | SNB-19 23.3 µM | SR 10.3 µM

CC1=CC(=O)/C(=C/NC(=S)c2ccncc2)C(=O)O1
inactive: A549 > 100 µM | DU-145 > 100 µM | HL-60 > 100 µM | HT-29 > 100 µM | Hs-578T > 100 µM | KM12 > 100 µM | MDA-N > 100 µM | NCI/ADR-RES > 100 µM | OVCAR-4 > 100 µM | OVCAR-5 > 100 µM | RXF 393 > 100 µM | SK-MEL-28 > 100 µM | SK-MEL-5 > 100 µM | SN12C > 100 µM | SNB-19 > 100 µM | SR > 100 µM

c1csc(C(NC2=NCCO2)C2CC2)c1 (stereo not given)
inactive: A549 > 100 µM | HT-29 83.9 µM | Hs-578T > 100 µM | MDA-N > 100 µM | OVCAR-4 > 100 µM | OVCAR-5 > 100 µM | RXF 393 > 100 µM | SK-MEL-5 > 100 µM | SN12C > 100 µM | SNB-19 > 100 µM | SR > 100 µM | T47D > 100 µM

CNC(=O)OC(COC)CN1CCN(c2ccccc2C)CC1 (stereo not given)
inactive: A549 > 10 µM | DU-145 > 10 µM | HL-60 > 10 µM | HT-29 > 10 µM | Hs-578T > 10 µM | K562 > 10 µM | KM12 > 10 µM | NCI/ADR-RES > 10 µM | OVCAR-4 > 10 µM | RXF 393 > 10 µM | SK-MEL-28 > 10 µM | SK-MEL-5 > 10 µM | SN12C > 10 µM | SNB-19 > 10 µM | SR > 10 µM | T47D > 10 µM

CC(=O)c1c(-c2cccc3ccccc23)c(C#N)c(=S)n(C2OC(CO)C(O)C(O)C2O)c1C (stereo not given)
inactive: A549 > 100 µM | DU-145 > 100 µM | HT-29 > 100 µM | Hs-578T > 100 µM | K562 43.9 µM and 71.6 µM | KM12 79.1 µM | MDA-N 50.1 µM | NCI/ADR-RES 62.2 µM | OVCAR-4 > 100 µM | OVCAR-5 > 100 µM | RXF 393 83.6 µM | SK-MEL-28 > 100 µM | SK-MEL-5 > 100 µM | SN12C 81.3 µM | SNB-19 59.7 µM

ClCCCN(CCCCl)c1ccc(/C=N/c2cccc(Cl)c2)cc1
inactive: A549 10.2 µM | DU-145 2.56 µM | HL-60 12.6 µM | HT-29 23.6 µM | Hs-578T 16.1 µM | K562 11.8 µM | KM12 20.5 µM | NCI/ADR-RES 11.2 µM | OVCAR-4 9.75 µM | OVCAR-5 22.1 µM | RXF 393 14.2 µM | SK-MEL-28 55.8 µM | SN12C 10.4 µM | SNB-19 30.1 µM | T47D 7.11 µM

COC(=O)CC1CN(C(=O)OCc2ccccc2)C(C)(C)O1 (stereo not given)
inactive: A549 > 100 µM | DU-145 > 100 µM | HL-60 89.9 µM | K562 > 100 µM | KM12 43.3 µM | MDA-N > 100 µM | NCI/ADR-RES > 100 µM | OVCAR-4 > 100 µM | OVCAR-5 > 100 µM | RXF 393 > 100 µM | SK-MEL-28 9.06 µM | SK-MEL-5 44.6 µM | SN12C > 100 µM | SNB-19 7.08 µM | SR > 100 µM

N#Cc1ccccc1NC(=O)C(=O)c1c(O)c2ccccc2oc1=O
inactive: A549 > 100 µM | HL-60 > 100 µM | HT-29 > 100 µM | Hs-578T > 100 µM | K562 > 100 µM | KM12 > 100 µM | MDA-N > 100 µM | NCI/ADR-RES > 100 µM | OVCAR-4 > 100 µM | OVCAR-5 > 100 µM | RXF 393 > 100 µM | SK-MEL-28 > 100 µM | SK-MEL-5 > 100 µM | SN12C > 100 µM | SNB-19 > 100 µM | T47D > 100 µM

COc1cc2c3c(c4cc(OC)c(OC)cc4c2cc1OC)C(=O)C1CCC(=O)N1C3 (stereo not given)
inactive: DU-145 11.5 µM | HL-60 41.3 µM | Hs-578T 3.3 µM | K562 14 µM | KM12 70.1 µM | NCI/ADR-RES 94.4 µM | OVCAR-4 12.8 µM | RXF 393 14.8 µM | SK-MEL-28 19.8 µM | SK-MEL-5 34 µM | T47D 8.71 µM

N[C@@H]1C[C@H](N)c2c(Cl)sc(Cl)c21
inactive: A549 > 100 µM | DU-145 > 100 µM | K562 > 100 µM | KM12 > 100 µM | MDA-N > 100 µM | NCI/ADR-RES > 100 µM | OVCAR-4 > 100 µM | OVCAR-5 > 100 µM | RXF 393 > 100 µM | SK-MEL-28 > 100 µM | SK-MEL-5 > 100 µM | SN12C > 100 µM | SNB-19 > 100 µM | SR > 100 µM | T47D > 100 µM

CN(Cc1cccc2ccccc12)Cc1cccc2ccccc12
inactive: A549 34 µM | DU-145 54 µM | HL-60 13.4 µM | HT-29 15.4 µM | Hs-578T 44.3 µM | K562 35.1 µM | KM12 41.5 µM | NCI/ADR-RES 47.5 µM | OVCAR-4 36.1 µM | OVCAR-5 43 µM | RXF 393 47.1 µM | SK-MEL-28 35.2 µM | SK-MEL-5 18.5 µM | SN12C 36.6 µM | SNB-19 52.7 µM | SR 30.8 µM | T47D 21 µM
